Experimental findings from patent US20250179509A1, “NATIVE DELIVERY OF BIOMOLECULES INTO PLANT CELLS USING IONIC COMPLEXES WITH CELL-PENETRATING PEPTIDES” (BASF Plant Science Company GmbH, priority 2018, published 2025) are described below.

In one data set the test system is rice cells. The data set can be described thus: Delivery of DNA into rice cells by linear versus cyclic peptide. It counts as cell-based. Here is the method: BP2 is a cyclic peptide due to its disulphide bond between the two cysteins. This structure improve binding to proteins, peptides and DNA and improves cell survival (reduced cell toxicity) and regeneration. These advantages of the cyclic structure were analysed by studying a linear, non-cyclic, version of BP2 with regards to its potential to delivery.

Data set [1] in a line: Secondary structure contents of peptides (DichroWeb analysis). It counts as physicochemical. Conditions: various solvents, reducing or non-reducing conditions. Here is the method: FIG. 20: Secondary structure contents of BPCH7, BPLH7, and BPKH in various solvents (reducing or non-reducing conditions). Analysis was performed using DichroWeb (CONTIN, dataset 4).
The subject of a further data set is 5-day callus cell. The data set can be described thus: Western blot quantification of Citrine extracted from rice callus. It counts as cell-based, Oryza sativa, cv. Nipponbare. The conditions noted are these: 72-hour post-infiltration, with vacuum and pressure treatment, area intensity compared with positive control. The procedure: (§1) 10 mg rice callus (5-day or 21-day) was immersed in 100 μL of fresh prepared complex solutions in a screw cap tube. Subsequently depressurized the solution at −0.08 MPa for 1 min and compressed at +0.08 MPa for 1 min. After this treatment, the callus was transferred onto the N6D medium, and incubated at 30° C. in the dark until use.
Confocal laser scanning microscopy (CLSM, ZeissLSM 700, Carl Zeiss, Oberkochen, Germany) was used to evaluate the intracellular uptake of CPP-FP-Citrine every 24 hours. Before the observation by CLSM, the callus on N6D was transferred into a 1.5 mL Eppendorf tube and washed thoroughly with Milli-q water contains 0.1% tween 20 for five times to remove the Citrine on cell surface. […] CPP-FP-Citrine was detected by setting the excitation at 488 nm and emission in a range of 505-600 nm. For distinguish plasma membrane region and cytoplasm region, the callus was additionally incubated with FM4-64 (20 µM, 20 min at RT) for cell membrane stain, and detected by setting the excitation at 405 nm and emission at 560-700. Furthermore, quantification of the intracellular Citrine by western blot immunoassay. […]
We next quantified the Citrine from the cell extraction by western blot. […] As controls, the samples with infiltration of Milli-q water and Citrine only without vacuum and pressure treatment were also analyzed (FIG. 7a). […]
A general note: Immunoblotting shows a protein as a band on a membrane.

Another data set has as its system rice callus cells. The data set can be described thus: CLSM observation of intracellular uptake and distribution of Citrine after vacuum/pressure infiltration. The data set is classed as cell-based, Oryza sativa, cv. Nipponbare. The conditions noted are these: for distribution of Citrine in callus cell: 5-day callus cell, 72-hours incubation, FM 4-64 stain, 3D images and optical sections. Here is the method: Mature dry seeds of Oryza sativa, cv. Nipponbare (O. sativa) were surface-sterilized with 70% ethanol (v/v) for 1 min, followed by 30 min in 50% (v/v) commercial bleach with rotation at 20 rpm. Seeds were then washed 8-10 times with sterile distilled water and dried on autoclaved Kimwipes (3 mm) for 5 min. For callus induction, sixteen seeds were inoculated petri plate on callus induction medium (N6D) and incubated at 30° C. with continuous light in a plant bio-incubator (TOMY CLE-303 cultivation chamber Tokyo, Japan). N6D was prepared using basal 30 g/L […], 0.3 g/L casamino acid, 2.8 g/L L-proline, 2 mg/L 2,4-dichlorophenoxyacetic acid (2,4-D), 4.0 g/L CHO (N6) basal salt mix, gelled with 4 g/L phytagel and pH adjusted to 5.8 before autoclaving. After 5-day cultivation, the callus was cut into approximately four equal parts. This callus was used as the 5-day callus in this work. On the other hand, after 21-day cultivation, the self-shedding callus was collected and used as the 21-day callus. For the callus regeneration test, the callus was cut to small pieces in different sizes, then transferred onto a regeneration medium and incubated at 30° C. with continuous light for 7 days. […] The regeneration medium was prepared based on using 4 g/L MS powder with vitamin, supplied with 30 g/L sorbitol, 30 g/L sucrose, 4 g/L casamino acid, 2 mg/L 2,4-D and 2 mg/L 1-Naphthaleneacetic acid (NAA), gelled with 4 g/L phytagel and pH was adjusted to 5.8 before autoclaving. The chemicals used in this research are purchased from Sigma (Sigma-Aldrich, MO, USA) and Wako (Wako, Pure Chemical, Tokyo, Japan).
as §1
Confocal laser scanning microscopy (CLSM, ZeissLSM 700, Carl Zeiss, Oberkochen, Germany) was used to evaluate the intracellular uptake of CPP-FP-Citrine every 24 hours. Before the observation by CLSM, the callus on N6D was transferred into a 1.5 mL Eppendorf tube and washed thoroughly with Milli-q water contains 0.1% tween 20 for five times to remove the Citrine on cell surface. Thereafter, the callus was cut into tiny pieces and mounted on glass slides, then covered with coverslips. CPP-FP-Citrine was detected by setting the excitation at 488 nm and emission in a range of 505-600 nm. For distinguish plasma membrane region and cytoplasm region, the callus was additionally incubated with FM4-64 (20 µM, 20 min at RT) for cell membrane stain, and detected by setting the excitation at 405 nm and emission at 560-700. Furthermore, quantification of the intracellular Citrine by western blot immunoassay. After 72-hour post-infiltration, the protein was extracted from rice callus. The rice callus was frozen with liquid nitrogen, and then grinding in a mortar into powder. 50 μl of 10 mM Tris-HCL buffer (pH 7.4) containing 10 μL Halt protease inhibitor cocktail (Thermo Scientific, MA, USA) was added to 0.1 g callus powder, mixed well and incubated on ice for 1 hour. After centrifuge at […], 4° C. for 20 min, the supernatant was collected and used as the cell extraction. 10 μL of the cell extraction was subjected to a 4-20% sodium dodecyl sulfate polyacrylamide electrophoresis gels (SDS-PAGE, Bio-Rad, California, USA). Proteins were then transferred onto a PVDF membranes (Bio-Rad, California, USA) using a semi-dry transfer cell (Bio-Rad, California, USA) at 10 V for 1 hour. The immunodetection of Citrine was performed with a rabbit polyclonal antibody (GFP antibody NB600-308, Novus Biologicals, Co, USA, dilution to 1:2000). IgG goat anti-rabbit antibody conjugated with horse radish peroxidase was used as a secondary antibody (goat anti-rabbit IgG H&L HRP ab6789, Abcam, Cambridge, UK, dilution to 1:20000). […]

The test system of the next data set is rice callus. Briefly: Delivery of dsRed plasmid DNA into rice callus and dsRed expression. The data set is classed as cell-based. Conditions: dsRed plasmid DNA (SEQ ID NO: 1) combined with peptide, after 4 days. The procedure: CPP (BP100 KH9) and dsRed plasmid DNA (Seq ID NO: 1) or Cy3 labelled PNA (peptide nucleic acid) (1:10 molar ratio) were mixed together and incubated for 30 minutes at 4° C. After incubation the volume was made up to 100 μl with water.
Callus from 5-7 days old rice seeds were used for the experiments. To 10 mg of callus, CPP/DNA or CPP/PNA mixture was added and vacuum infiltrated for 15 mins, washed with distilled water and plated on N6 medium.

“KKLFKKILKYLHHCRGHTVHSHHHCIR [LH7, linear, non-cyclic version of BP2, reference compound]”: the “activity in delivery DNA into rice cells” value in the data set with rice cells was “significantly lower activity”. Besides, in data set [1], the secondary structure result is reported as “higher degree of unordered structure”.
The sequence “KKLFKKILKYLHHCRGHTVHSHHHCIR (BP2 amino acid sequence, synthetic) [BP100CH7]” gave a Citrine delivered in the data set on 5-day callus cell of 0.043 ng/mg callus. Besides, in data set [1] (listed as BP2), the secondary structure entry was “higher helix and strand order”. Besides, in the data set with rice callus cells, the “distribution of Citrine in callus cell” value was “located in cell membrane and the cytoplasm regions of the cells”. Besides, the “Citrine fluorescence inside of the cells observed, time after infiltration” value in the data set with rice callus cells (5-day callus cells, P/C ratio of 100) worked out at 72 h.
“KKLFKKILKYLKHKHKHKHKHKHKHKHKH (BP1 amino acid sequence, synthetic) [BP100 (KH)9]”: the Citrine delivered in the data set with 5-day callus cell was 0.042 ng/mg callus. Besides, the secondary structure entry in data set [1] is “higher helix and strand order”. The “dsRed expression (red fluorescence)” value with rice callus is given as “visible red fluorescence”. Besides, the “distribution of Citrine in callus cell” value with rice callus cells is “located in cell membrane and the cytoplasm regions of the cells”. Moreover, the “Citrine fluorescence inside of the cells observed, time after infiltration” value in the data set on rice callus cells (5-day callus cells, P/C ratio of 1) is 72 h. The “Citrine fluorescence inside of the cells first observed, time after infiltration” value in the data set with rice callus cells (5-day callus cells, P/C ratio of 10) came out at 48 h. Further, the “Citrine florescence observed, time after infiltration” value in the data set with rice callus cells (21-day rice callus, P/C ratio of 10) was 48 h.
